{
  "source": "patent US6500824B1",
  "about": "“Kappa (OP2) opioid receptor antagonists” (Regents of the University of Minnesota, priority 1998, dated 2002)",
  "key": {"μ(OP3) opioid receptor": {"tested_on": "μ(OP3) opioid receptor", "assay": "Guinea pig ileal longitudinal muscle (GPI) smooth muscle assay, antagonism of morphine", "format": "cell-based", "settings": "agonist morphine, antagonist concentration 100 nM", "description": "(§1) 1. Guinea Pig Ileal Longitudinal Muscle (GPI). Ilea from guinea pigs were taken approximately 10 cm from the ileocecal junction, and a strip of longitudinal muscle with the myenteric plexus attached was prepared by the method of H. B. Rang et al., Brit. J Pharmacol., 1964, 22, 356. A 1 cm portion of this strip was then mounted between two platinum electrodes placed in a 10 ml organ bath and connected to an isometric transducer, contractions were recorded on a polygraph. Contractions of the ileal strip were initiated by supramaximal rectangular pulses in all preparations (80 V of 0.5 ms duration at a frequency of 0.1 Hz). Krebs bicarbonate solution containing […] chloropheniramine maleate was the bathing solution and was continuously bubbled with 95% O2 and 5% CO2. The organ bath was maintained at 36-37° C. The longitudinal strip was allowed to equilibrate with continuous stimulation for a minimum of 90 min. Cumulative concentration-response curves were determined after drugs were added to the bath in preselected amounts and washed out with buffer after noting their maximum effects.\n(§2) The standard agonists employed were [D-Ala^2, D-Leu^5]enkephalin (DADLE) (D), morphine (M) and ethylketazocine (EKC); these are selective for delta (D), mu (M) and kappa (EKC) opioid receptors, respectively. Concentration-response curves were obtained in the absence (control) and the presence of the antagonist and were determined as IC50 values. The IC50 ratio represents the IC50 in the presence of the antagonist divided by the control IC50 value in the same tissue. A concentration independent value of antagonist potency is calculated from the equation, Ke=[antagonist]/(IC50 ratio-1)."}, "wt κ receptor": {"molecular_target": "T1, wt κ receptor (Rattus norvegicus, UniProt P34975)", "T1 construct": "expressed in transfected cells; host or cells: COS-7 (per the earlier reading)", "assay": "Competition binding with [3H]diprenorphine, whole cell binding, COS-7 cells, wt κ", "excerpt": "(§3) The effects of mutational exchange of Glu297 in the κ receptor and Lys303 in the μ receptor on the binding affinity of representative compounds of the invention were examined using techniques known in the art."}, "[1]": {"assay": "Butorphanol-induced feeding", "format": "in vivo", "settings": "FIG. 3", "excerpt": "(§4) The ability of a compound to decrease butorphanol-, DAMGO-, U50,488-, 24-hour deprivation-, and Neuropeptide Y-induced feeding can be determined using models known in the art. See for example, A. S. Levine et al., Brain Research, 1998, 534, 60-64; and D. C. Jewett, et al., 1998, Society for Neuroscience Abstracts, 1, Abstract #276.10, 705."}, "U50,488-induced feeding": {"assay": "U50,488-induced feeding", "format": "in vivo", "settings": "FIG. 5", "excerpt": "as §4"}, "kappa opioid receptor [2]": {"molecular_target": "T2, kappa opioid receptor (Mus musculus, UniProt P33534)", "assay": "Mouse tail flick assay, antagonism of U-50488H (κ) by ICV antagonist", "format": "in vivo", "design": "from tissue; host or cells: living mouse (ICV or SC dosing)"}, "δ(OP1) opioid receptor": {"molecular_target": "T3, δ(OP1) opioid receptor (Mus musculus, UniProt P32300)", "T3 construct": "Both vasa deferentia were dissected out of mice and mounted singly; from tissue; host or cells: mouse vas deferens", "assay": "Mouse vas deferens (MVD) smooth muscle assay, antagonism of DADLE", "format": "cell-based", "description": "2. Mouse Vas Deferens (MvD). This assay was performed according to the description by G. Henderson et al., Brit. J. Pharmacol., 1972, 46,764. Both vasa deferentia were dissected out of mice and mounted singly through two platinum electrodes in a 10 ml organ bath. The bath contained Krebs bicarbonate solution that was continuously bubbled with 95% O2 and 5% CO2. The organ bath was maintained at 37° C. The tissue was attached to an isometric transducer and stimulated transmurally with rectangular pulses ([…], 1 ms duration, supramaximal voltage). Drugs were added cumulatively to the bath in preselected amounts and washed out after noting their maximum effects.\nas §2"}, "DAMGO-induced feeding": {"assay": "DAMGO-induced feeding", "format": "in vivo", "settings": "FIG. 4", "excerpt": "as §4"}, "kappa opioid receptor [3]": {"molecular_target": "T2, kappa opioid receptor", "assay": "Mouse abdominal stretch assay, antagonism of U-50488H antinociception by SC antagonist", "format": "in vivo", "design": "from tissue; host or cells: living mouse (SC dosing)"}, "μ[K303E] receptor": {"molecular_target": "T4, μ[K303E] receptor (Rattus norvegicus, UniProt P33535, K303E)", "T4 construct": "expressed in transfected cells; host or cells: COS-7 (per the earlier reading)", "assay": "Competition binding with [3H]diprenorphine, whole cell binding, COS-7 cells, μ[K303E]", "excerpt": "as §3"}, "kappa opioid receptor [4]": {"molecular_target": "T5, kappa opioid receptor (Cavia porcellus, UniProt P41144)", "T5 construct": "a strip of longitudinal muscle with the myenteric plexus attached was prepared; from tissue; host or cells: guinea pig ileal longitudinal muscle with myenteric plexus", "assay": "GPI preparation, kappa antagonist potency against U-50488H", "format": "cell-based, guinea pig", "description": "as §1"}, "delta opioid receptor": {"molecular_target": "T6, delta opioid receptor (Mus musculus, UniProt P32300)", "T6 construct": "from tissue; host or cells: living mouse (ICV dosing)", "assay": "Mouse tail flick assay, antagonism of DSLET (δ) by ICV antagonist", "format": "in vivo", "settings": "antagonist ICV 50 pmol, agonist DSLET"}, "[5]": {"assay": "24-hour deprivation-induced feeding", "format": "in vivo", "settings": "FIG. 6", "excerpt": "as §4"}, "mu opioid receptor": {"molecular_target": "T7, mu opioid receptor (Mus musculus, UniProt P42866)", "T7 construct": "from tissue; host or cells: living mouse (ICV dosing)", "assay": "Mouse tail flick assay, antagonism of morphine (μ) by ICV antagonist", "format": "in vivo", "settings": "antagonist ICV 50 pmol, agonist morphine"}, "[6]": {"molecular_target": "T8, kappa (OP2) opioid receptor (Cavia porcellus, UniProt P41144)", "T8 construct": "a strip of longitudinal muscle with the myenteric plexus attached was prepared; from tissue; host or cells: guinea pig ileal longitudinal muscle with myenteric plexus", "assay": "Guinea pig ileal longitudinal muscle (GPI) smooth muscle assay, antagonism of ethylketazocine (EKC)", "format": "cell-based", "description": "as §1, §2"}, "[7]": {"assay": "Neuropeptide Y-induced feeding", "format": "in vivo", "settings": "FIG. 7", "excerpt": "as §4"}, "κ[E297K] receptor": {"molecular_target": "T9, κ[E297K] receptor (Rattus norvegicus, UniProt P34975, E297K)", "T9 construct": "expressed in transfected cells; host or cells: COS-7 (per the earlier reading)", "assay": "Competition binding with [3H]diprenorphine, whole cell binding, COS-7 cells, κ[E297K]", "excerpt": "as §3"}, "wt μ receptor [8]": {"tested_on": "wt μ receptor", "assay": "Competition binding with [3H]diprenorphine, whole cell binding, COS-7 cells, wt μ", "design": "species or system rat", "settings": "wt μ", "excerpt": "as §3"}, "wt μ receptor [9]": {"molecular_target": "T10, wt μ receptor (Rattus norvegicus, UniProt P33535)", "T10 construct": "expressed in transfected cells; host or cells: COS-7 (per the earlier reading)", "assay": "Competition binding with [3H]diprenorphine, whole cell binding, COS-7 cells, wt μ", "settings": "[3H]diprenorphine competition; COS-7 whole cell binding; read-out: Ki ± SEM, wt μ", "excerpt": "as §3"}, "[10]": {"settings": "in vitro smooth muscle Ke, relative to nor-BNI"}},
  "note": "Marks after values point to notes of the source that are not given here.",
  "data": [
    {"smiles": "N=C(N)Nc1ccc2[nH]c3c(c2c1)C[C@@]1(O)[C@H]2Cc4ccc(O)c5c4[C@@]1(CCN2CC1CC1)[C@H]3O5.O.O.O=C(O)C(F)(F)F.O=C(O)C(F)(F)F", "note": "[Compound 15, 5′-Guanidinyl-17-cyclopropylmethyl-6,7-didehydro-4,5-α-epoxy-3.14-dihydroxyindolo[2′,3′:6,7]morphinan Ditrifluoroacetate Dihydrate]", "values": [
      {"measurement": "Antagonist Potency Ke μ(OP3) Morphine", "setting": "μ(OP3) opioid receptor", "value": 30.00, "unit": "nM"},
      {"measurement": "Ki", "setting": "wt κ receptor; [3H]diprenorphine competition, COS-7 whole cell binding, read-out: Ki ± SEM, wt κ", "value": "0.09 ± 0.01", "unit": "nM"},
      {"measurement": "Fana = Ki(analog)/Ki(nor-BNI on the wt κ receptor)", "setting": "wt κ receptor; wt κ", "value": 0.75},
      {"measurement": "effect on Butorphanol-induced feeding", "setting": "[1]", "value": "does not decreases"},
      {"measurement": "effect on U50,488-induced feeding", "setting": "U50,488-induced feeding", "value": "decreases"},
      {"measurement": "in vivo kappa selectivity (in words)", "setting": "kappa opioid receptor [2]; in vivo studies, Tables 2 and 3", "value": "selective κ-antagonist"},
      {"measurement": "ED50 Ratio (limits), U-50488H (κ)", "setting": "kappa opioid receptor [2]; mouse tail flick, antagonist ICV 50 pmol, agonist U-50488H", "value": "4.5 (3.4-6.3)"},
      {"measurement": "Antagonist Potency Ke δ(OP1) DADLE", "setting": "δ(OP1) opioid receptor; agonist DADLE, antagonist concentration 100 nM", "value": 115, "unit": "nM"},
      {"measurement": "delta antagonist activity of NTI associated with the compound (in words)", "setting": "δ(OP1) opioid receptor; in vitro", "value": "little, if any"},
      {"measurement": "effect on DAMGO-induced feeding", "setting": "DAMGO-induced feeding", "value": "decreases"},
      {"measurement": "potency relative to nor-BNI, SC-administered", "setting": "kappa opioid receptor [3]; SC, relative to nor-BNI", "value": "greater than 50 times"},
      {"measurement": "ED50 Ratio (limits), U-50488H antinociception", "setting": "kappa opioid receptor [3]; antagonist SC 0.05 μmol kg−1, U-50488H SC", "value": "3.0 (1.9-5.0)"},
      {"measurement": "ED50 Ratio (limits), U-50488H antinociception", "setting": "kappa opioid receptor [3]; antagonist SC 2.0 μmol kg−1, U-50488H SC", "value": "3.8 (2.5-6.3)"},
      {"measurement": "Ki", "setting": "μ[K303E] receptor; [3H]diprenorphine competition, COS-7 whole cell binding, read-out: Ki ± SEM, μ[K303E]", "value": "0.06 ± 0.02", "unit": "nM"},
      {"measurement": "Fmut = mutational factor, Ki(mutant receptor)/Ki(wt κ receptor)", "setting": "μ[K303E] receptor; μ[K303E]", "value": 0.67},
      {"measurement": "Kb", "setting": "kappa opioid receptor [4]; GPI, agonist U-50488H, read-out: Ke", "value": 0.041, "unit": "nM"},
      {"measurement": "potency relative to nor-BNI, antagonism of U-50488H", "setting": "kappa opioid receptor [4]; GPI, agonist U-50488H, relative to nor-BNI", "value": 5, "unit": "fold"},
      {"measurement": "Selectivity Ratio κ/δ", "setting": "kappa opioid receptor [4]; δ agonist [D-Ala2, D-Leu5]enkephalin, κ agonist U-50488H", "value": 2797},
      {"measurement": "Selectivity Ratio κ/μ", "setting": "kappa opioid receptor [4]; μ agonist morphine, κ agonist U-50488H", "value": 728},
      {"measurement": "ED50 Ratio (limits), DSLET (δ)", "setting": "delta opioid receptor", "value": "1.4 (1.0-2.2)"},
      {"measurement": "effect on 24-hour deprivation-induced feeding", "setting": "[5]", "value": "decreases"},
      {"measurement": "ED50 Ratio (limits), Morphine (μ)", "setting": "mu opioid receptor", "value": "0.8 (0.5-1.2)"},
      {"measurement": "Antagonist Potency Ke κ(OP2) EKC", "setting": "[6]; GPI, agonist EKC, antagonist concentration 20 nM (*)", "value": "0.144* nM"},
      {"measurement": "selectivity ratio κ/δ, fold greater than that of nor-BNI", "setting": "[6]; [10]", "value": 42, "unit": "fold"},
      {"measurement": "selectivity ratio κ/μ, fold greater than that of nor-BNI", "setting": "[6]; [10]", "value": 9, "unit": "fold"},
      {"measurement": "kappa opioid receptor selectivity (in words)", "setting": "[6]; in vitro, versus morphine and DADLE antagonism, Ditrifluoroacetate Dihydrate", "value": "potent and highly selective"},
      {"measurement": "effect on Neuropeptide Y-induced feeding", "setting": "[7]", "value": "does not decreases"},
      {"measurement": "Ki", "setting": "κ[E297K] receptor; [3H]diprenorphine competition, COS-7 whole cell binding, read-out: Ki ± SEM, κ[E297K]", "value": "12.9 ± 0.48", "unit": "nM"},
      {"measurement": "Fmut = mutational factor, Ki(mutant receptor)/Ki(wt κ receptor)", "setting": "κ[E297K] receptor; κ[E297K]", "value": 143},
      {"measurement": "Fmut = mutational factor, Ki(mutant receptor)/Ki(wt κ receptor)", "setting": "wt μ receptor [8]", "value": 103},
      {"measurement": "Ki", "setting": "wt μ receptor [9]", "value": "9.23 ± 1.39", "unit": "nM"}
    ]}
  ]
}
